Data: a melting point compilation (Tetko et al.; mined from patent text by program, amines drawn as free bases though some values may be those of a salt)

First: CCn1c(=O)c(-c2c(Cl)cccc2Cl)cc2cnc(NCCCN3CCN(C)CC3)nc21
Second: Cc1nc2scc(-c3ccccc3)n2c(=O)c1CCN1CCC(c2noc3cc(F)ccc23)CC1
The melting point of the first is higher: 126 to 128 °C for the first, 76 to 91 °C for the second.

Compared with `CN(C)c1ccc(-c2cc(F)c(F)cc2-c2ccc(S(N)(=O)=O)cc2)cc1Cl`, `CS(=O)(=O)c1ccc(-c2cnn(CC(F)(F)F)c(=O)c2-c2ccc(F)c(Cl)c2)cc1` is lower in melting point: 193 to 194 °C for the first, 165 to 166 °C for the second.

First: COC(=O)Cc1sc(=O)[nH]c1COc1ccccc1
Second: CCOC(=O)C(=O)Nc1coc2ccccc2c1=O
The melting point of the first is lower: 103 °C for the first, 146 to 148 °C for the second.

First: FC(F)(F)c1cccc(N=C=S)c1
Second: CSc1c(C#N)cnn1-c1ccc(C(F)(F)F)cc1Cl
The melting point of the first is higher: 133 °C for the first, 59 to 62 °C for the second.

First: COc1cc(C)c(CCCCCCCCCCCCCCCC(=O)O)c(O)c1OC
Second: O=C(O)CCCCCCCCCCCCCCCCC(=O)ON1C(=O)CCC1=O
The melting point of the first is lower: 45 to 46 °C for the first, 120 to 122 °C for the second.

Compared with `O=C(O)c1cccn1-c1ccc(F)cc1`, `O=C(O)CCC(=NO)c1ccc(-c2cccc(F)c2)cc1` is lower in melting point: 195 to 196 °C for the first, 155 to 157 °C for the second.

First: COc1nc(N)nc2c1ncn2C1OC(CO)C(OC(=O)C(C)(C)C)C1O (stereo not given)
Second: COC(=O)CCC(=O)c1cc2cc(OC)c(OC)cc2o1
The melting point of the first is lower: 113 to 115 °C for the first, 140 to 142 °C for the second.

Compared with `N#CC(C#N)=C(NCCCN1CCCCC1)NCCCN1CCCCC1`, `O=C(CC1CCCCCC1)c1cn(CCO)c2cccc(Cl)c12` is higher in melting point: 110 to 112 °C for the first, 113 to 119 °C for the second.

First: CCCCc1nc2c(N)nc3cc(-c4ccsc4)ccc3c2n1CC(C)C
Second: CCOC(=O)c1cnn2c(-c3ccc(C)c(C)c3)ccnc12
The melting point of the first is higher: 229 to 230 °C for the first, 187 to 188 °C for the second.

First: c1ccc(C2CCc3ccccc3S2)cc1 (stereo not given)
Second: CCCN1N=C2C(=Cc3ccccc3)CS(=O)CC2C1c1ccccc1 (stereo not given)
The melting point of the first is lower: 45 to 49 °C for the first, 164 to 166 °C for the second.

First: Cc1ccc(C(=O)NC(Cc2ccccc2)NC(=S)Nc2cccc([N+](=O)[O-])c2)cc1 (stereo not given)
Second: COc1ccc(S(=O)(=O)Nc2ccc(F)cc2NC(=O)c2ccccc2)cc1
The melting point of the first is higher: 170 to 171 °C for the first, 153 to 154 °C for the second.

Compared with `Cc1[nH]c2ccc(CCOS(C)(=O)=O)cc2c1C(=O)OCc1ccccc1`, `CC(C)(C)OC(=O)N1CC(COS(C)(=O)=O)c2c1cc(OCc1ccccc1)c1ncccc21` (stereo not given) is higher in melting point: 122 to 124 °C for the first, 156 to 157 °C for the second.

First: CCOC(=O)NCCOc1ccc(Oc2cc(F)cc(F)c2)cc1
Second: OCCNCCOc1ccc2cc3ccc(OCCNCCO)cc3nc2c1
The melting point of the first is lower: 54 to 56 °C for the first, 125 to 127 °C for the second.

First: N#Cc1cc(C(F)(F)F)cnc1O
Second: COC(=O)Nc1ccccc1CS(=O)c1ncc(C(F)(F)F)cc1Cl (stereo not given)
The melting point of the first is higher: 170 to 175 °C for the first, 160 to 162 °C for the second.

First: CCOC(=O)Cc1cnn(C)c1O
Second: CCOC(=O)C=Cc1ccc(Cl)c(Cl)c1
The melting point of the first is higher: 104 to 105 °C for the first, 56 °C for the second.

Compared with `Oc1c2c(nn1-c1ccccn1)CCCc1ccccc1-2`, `O=c1c(Br)c(O)c2cccnc2n1-c1ccccc1` is higher in melting point: 80 to 81 °C for the first, > 280 °C for the second.

First: CCc1cc2c(=O)c(C(=O)O)cn(Cc3ccc(-c4ccccc4-c4nnn[nH]4)cc3)c2s1
Second: CC(=O)n1ccc(-c2c(-c3ccncc3)c(-c3ccc(F)cc3)nn2CCO)cc1=O
The melting point of the first is lower: 153 to 157 °C for the first, 220 to 221 °C for the second.

First: CC1=Cc2cc(Br)ccc2S1(=O)=O
Second: Cc1cccc(NP(N)(N)=O)c1
The melting point of the first is lower: 149 to 151 °C for the first, 159 to 162 °C for the second.

Compared with `CCCc1c(OCCCOc2ccc3c(c2CCC)OC(C)(CCC(=O)OC)CC3=O)ccc(C(C)=O)c1O` (stereo not given), `CCCCCNC(=O)N(C)c1cccc(-c2ccc(C=C(OC)C(=O)O)cc2OCCCC)c1` is lower in melting point: 73 to 74.5 °C for the first, 61 °C for the second.

First: Cc1c(F)c(F)c(C(=O)NC(C(C)C)C(C)C)c(F)c1F
Second: CCn1nc(C(F)(F)F)cc1NC(=O)c1c(C)cccc1C(=O)NC(C)C
The melting point of the first is lower: 184 to 187 °C for the first, 223 to 226 °C for the second.

First: Cc1ccc(S(=O)(=O)Nc2cc(C)cc([N+](=O)[O-])c2N)cc1
Second: Cc1ccc(C2=C(c3ccc(S(C)(=O)=O)cc3)CN(C)C2=O)c(C)c1
The melting point of the first is higher: 184 °C for the first, 59 to 61 °C for the second.

First: CCCCN1C(=O)NC(=Cc2ccc(C=O)cc2)C1=O
Second: COc1cc(C=O)ccc1OCc1coc(-c2ccco2)n1
The melting point of the first is higher: 180 °C for the first, 138 to 139 °C for the second.

Compared with `CC(C)(C)OC(=O)NC(=NS(=O)(=O)C(F)(F)F)NC(=O)OCc1ccccc1`, `CC(C)(C)OC(=O)NCC(=O)Nc1ccccc1OCc1ccccc1` is lower in melting point: 95 to 97 °C for the first, 80 to 82 °C for the second.

First: C1=Cc2ccccc2ON1
Second: O=S(=O)(CCO)c1ccccc1
The melting point of the first is higher: 134 to 136 °C for the first, 87 to 89 °C for the second.

Compared with `C[C@H]1Cn2c(=O)[nH]c3c(Br)ccc(c32)CN1C(=O)OC(C)(C)C`, `CCNCC1CN(c2c(F)cc3c(=O)c(C(=O)O)cn(C4CC4)c3c2Cl)CC1C` (stereo not given) is higher in melting point: 229 °C for the first, 254 to 257 °C for the second.

Compared with `C=C(CC(C)C(=O)O)C(=O)O` (stereo not given), `CC(=O)NC(C)Cc1ccc(CCCC(=O)O)cc1` (stereo not given) is higher in melting point: 106 to 108 °C for the first, 114 to 117 °C for the second.

First: COc1cc2cnnc(Cl)c2cc1OC
Second: COc1ccc(Nc2c(C#N)cnc3cc(OC)c(OC)cc23)cc1Cl
The melting point of the first is lower: 195 to 197 °C for the first, 278 to 280 °C for the second.

Compared with `COc1cc2ncc(C#N)c(Nc3ccc4[nH]c(=O)sc4c3)c2cc1OC`, `COc1cc(C=CC=O)cc(OC)c1OCc1ccccc1` is lower in melting point: 285 to 287 °C for the first, 114 to 115 °C for the second.

First: O=C(NN=CC=Cc1ccccc1)c1ccccc1
Second: COC(=O)c1ccc(O)c(C(=O)CC(=O)c2ccccc2OCc2ccccc2)c1
The melting point of the first is higher: 192 to 194 °C for the first, 95 to 97 °C for the second.

First: CN(C)CCNC(=O)c1cccc(-c2nnc(CSCCOc3ccccc3)o2)c1
Second: Cc1cc(Oc2ccccc2)c(S(C)(=O)=O)cc1C(=O)O
The melting point of the first is lower: 64 °C for the first, 195 °C for the second.

First: COc1ccc(C(=O)O)s1
Second: COc1cc(C(=O)O)ccc1OCCCO
The melting point of the first is higher: 167 to 168 °C for the first, 162 °C for the second.

First: Cc1c2c(nc3c(C(F)(F)F)cccc13)CCCNC2
Second: Cc1ccc2nc3n(c2c1)CCC3
The melting point of the first is lower: 78 °C for the first, 118 to 120 °C for the second.

Compared with `c1cnnc(N=C2SC[C@@H]3Cc4ccccc4CN23)c1`, `CN(C)c1ccc2nc3c4ccccc4c(=Nc4ccncc4)cc-3oc2c1` is higher in melting point: 140 to 142 °C for the first, 217 to 218 °C for the second.

Compared with `CC(C)(C#N)c1c(Cl)cc([N+](=O)[O-])cc1Cl`, `CCc1nc(C)cn1C(=O)c1c(Cl)cccc1[N+](=O)[O-]` is higher in melting point: 80 °C for the first, 116 to 118 °C for the second.

First: CC(=O)c1cc(C)c(NC(=O)c2cc(C(F)(F)F)nn2-c2ncccc2Cl)c(C(=O)NC(C)C)c1
Second: Cc1cc2oc(=O)c(NC(=O)Nc3cccc(C(F)(F)F)c3)c(-c3ccccc3C)c2cc1Cl
The melting point of the first is lower: 135 to 137 °C for the first, 203 to 205 °C for the second.

First: C(=C\C1CCCCC1)/c1nc(COc2ccc(CCCn3ccnc3)cc2)co1
Second: CCCCCCc1ccc(-c2ccc(-c3ncc(C(N)=O)cn3)cc2)cc1
The melting point of the first is lower: 62 to 63 °C for the first, > 260 °C for the second.

First: Nc1nc(/C(=N/OCc2nnn[nH]2)C(=O)O)cs1
Second: CC(=O)OCC(=O)NCc1nc(-c2csc(N=C(N)N)n2)cs1
The melting point of the first is lower: 151 to 152 °C for the first, 182 to 183 °C for the second.

Compared with `CCc1noc(-c2ccc(O)cc2)n1`, `CN(C)C=Nc1ccc(-c2c[nH]cn2)cc1` is higher in melting point: 138 °C for the first, 141 to 142 °C for the second.

First: Fc1ccc(-c2ncn(CCCSc3ccccc3)c2-c2ccncc2)cc1
Second: CS(=O)C1(c2ccncc2)CNN=C1c1ccc(F)cc1 (stereo not given)
The melting point of the first is lower: 98 to 99 °C for the first, 263 °C for the second.

First: COC(=O)[C@H]1NC(=O)[C@H]1N (relative stereo)
Second: COc1cc(C(=O)N2CCCC2CO)c([N+](=O)[O-])cc1OC (stereo not given)
The melting point of the first is lower: 59 to 61 °C for the first, 124 to 128 °C for the second.

First: CCOC(=O)c1cn(-c2nonc2C)c2nc(Cl)c(F)cc2c1=O
Second: CCOc1cc(CCCOc2c(CC(=O)O)cccc2OC)n(Cc2ccc(Cl)cc2Cl)n1
The melting point of the first is higher: 211 to 216 °C for the first, 109 to 110 °C for the second.

`O=C1C=c2c(c3c4ccccc4oc3c3[nH]c4ccccc4c23)=N1` and `COc1ccc(C2=c3c(c4c(c5ccccc35)=C(c3ccc(OC)cc3)CO4)NC2)cc1` cannot be ordered by melting point: > 300 °C for the first, 340 °C for the second.

First: COc1ccc(N(C(=O)CN2C(=O)C(CO)C(=O)N(c3ccccc3)c3ccccc32)C(C)C)cc1 (stereo not given)
Second: COc1ccc2oc(=O)c(S(=O)(=O)Nc3ccc(Br)cc3)cc2c1
The melting point of the first is lower: 136 to 139 °C for the first, 166 to 168 °C for the second.

Compared with `Cc1ccc(NC(=O)c2ccc3oc(-c4c(C)cc(OCC(=O)N(C)C)cc4C)nc3c2)cc1C`, `COc1cccc(S(=O)(=O)c2ccc(C)nc2Nc2c(C)cc(C)cc2C)c1` is lower in melting point: 207 to 209 °C for the first, 87 to 88 °C for the second.

Compared with `CCOC(=O)C(NC(C)=O)C(O)c1ccc(C=Cc2csc3ccccc23)s1` (stereo not given), `COCCOC(=O)c1ccc(-c2ccc(N)cc2)c(C)c1` is lower in melting point: 157 to 159 °C for the first, 72 to 75 °C for the second.

Compared with `CCN(CC)c1cccc(COc2ccc(N)nn2)c1`, `CCOC(=O)C(=C(c1ccc(F)cc1)c1ccc(F)cc1)c1nnn(CC)n1` is lower in melting point: 115 to 118 °C for the first, 113 to 114 °C for the second.

First: Cn1nc(-c2c(F)cccc2Cl)nc1-c1ccc(Oc2ccc(C(F)(F)F)cn2)cc1Cl
Second: CSc1ccc(-n2c(-c3ccc(Cl)cc3)nc(SC)c(C#N)c2=O)cc1
The melting point of the first is lower: 139 to 141 °C for the first, 206 to 207 °C for the second.

First: CC(C)OC(=O)c1cc(Cl)c(Cl)c(-c2ccccc2)n1
Second: CN1Cc2c(-c3nc(CCl)co3)ncn2-c2ccccc2C1=O
The melting point of the first is lower: 94 to 96 °C for the first, 196 to 198 °C for the second.

First: CCc1nc2c(N)nc3cccnc3c2n1CC1(O)CCN(C(=O)N2CCOCC2)CC1
Second: CCOC(=O)[C@H](CCC1CCCCC1)N[C@H]1COc2ccccc2N(CC(=O)O)C1=O
The melting point of the first is higher: > 255 °C for the first, 135 to 139 °C for the second.

First: CCCCCCCCNC(=O)c1ccc(O)c(O)c1
Second: CCCCCCC(=O)OCCOC(=O)NC1(C(=O)O)CC1
The melting point of the first is higher: 118 to 120 °C for the first, 113 °C for the second.

Compared with `Cc1cc2sccc2c(N)n1`, `CC(CO)n1cnc2c(I)ncnc21` (stereo not given) is higher in melting point: 136 °C for the first, 193 to 194 °C for the second.

Compared with `CC(CCC(=O)O)C1CCC2C3C(=O)CC4CC(OC=O)CCC4(C)C3CC(OC=O)C12C` (stereo not given), `CC(=O)CCCn1c(=O)c2c(ncn2C)n(C)c1=O` is lower in melting point: 208 to 211 °C for the first, 109 to 111 °C for the second.

Work on `CC(C)c1ccc(N(C=O)C(=O)N(C)C)cc1` yielded a melting point of 30 to 32 °C.
